Measured values reported in US20230202990A1, “CYCLOHEXYL SUBSTITUTED TRIAZOLES” (Hoffmann-La Roche Inc., priority 2020, published 2023).

What follows are compounds tested against T1, human V1a receptor (Homo sapiens, UniProt P37288) (assay: human V1a receptor binding studies (3H-Vasopressin SPA, HEK293 cell membranes)). Conditions: competition with 3H-Vasopressin on membranes of HEK293 cells transiently transfected with human V1a receptor; Ki by Cheng-Prussoff equation; read-out: pKi (hV1a) (converted).
T1 construct: expressed in transfected cells; host or cells: HEK293 cells, transiently transfected; cell membranes
Protocol: The human V1a receptor was cloned by RT-PCR from total human liver RNA. The coding sequence was subcloned in an expression vector after sequencing to confirm the identity of the amplified sequence. […] Cell membranes were prepared from HEK293 cells transiently transfected with the expression vector and grown in 20 liter fermenters with the following protocol.
50 g of cells are re-suspended in 30 ml freshly prepared ice cold Lysis buffer (50 mM HEPES, 1 mM EDTA, 10 mM MgCl2 adjusted to pH= 7.4 + complete cocktail of protease inhibitor (Roche Diagnostics)). Homogenized with Polytron for Imin and sonicated on ice for 2x 2 minutes at 80% intensity (Vibracell sonicator). The preparation is centrifuged 20 min at 500 g at 4° C., the pellet is discarded and the supernatant centrifuged 1 hour at 43 ′000g at 4° C. (19 ′000rpm). The pellet is re-suspended in 12.5 ml Lysis buffer+12.5 ml Sucrose 20% and homogenized using a Polytron for 1-2 min. The protein concentration is determined by the Bradford method and aliquots are stored at -80° C. until use. For binding studies 60 mg Yttrium silicate SPA beads (Amersham) are mixed with an aliquot of membrane in binding buffer (50 mM Tris, 120 mM NaCl, 5 mM KCl, 2 mM CaCl2, 10 mM MgCl2) for 15 minutes with mixing. 50 µl of bead/membrane mixture is then added to each well of a 96 well plate, followed by 50 µl of 4 nM 3H-Vasopressin (American Radiolabeled Chemicals). For total binding measurement 100 µl of binding buffer are added to the respective wells, for non-specific binding 100 µl of 8.4 mM cold vasopressin and for compound testing 100 µl of a serial dilution of each compound in 2% DMSO. The plate is incubated 1 h at room temperature, centrifuged 1 min at 1000 g and counted on a Packard Top-Count. Non-specific binding counts are subtracted from each well and data is normalized to the maximum specific binding set at 100%. To calculate an IC50 the curve is fitted using a non-linear regression model (XLfit) and the Ki is calculated using the Cheng-Prussoff equation.

T1 sequence (P37288 whole entry): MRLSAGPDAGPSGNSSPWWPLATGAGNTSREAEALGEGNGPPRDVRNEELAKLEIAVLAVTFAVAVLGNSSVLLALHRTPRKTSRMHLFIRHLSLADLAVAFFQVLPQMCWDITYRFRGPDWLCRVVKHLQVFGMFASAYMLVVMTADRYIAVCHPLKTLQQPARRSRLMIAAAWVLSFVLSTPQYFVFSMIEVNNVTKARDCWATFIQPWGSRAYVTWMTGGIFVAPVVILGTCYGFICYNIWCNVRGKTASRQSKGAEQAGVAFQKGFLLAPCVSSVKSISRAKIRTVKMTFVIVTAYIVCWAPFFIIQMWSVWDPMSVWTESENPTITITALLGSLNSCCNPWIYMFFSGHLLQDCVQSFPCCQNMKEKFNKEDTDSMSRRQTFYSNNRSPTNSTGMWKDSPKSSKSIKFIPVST

Compound | Ki [nM]
CSCCc1nnc([C@H]2CC[C@H](Oc3ccccn3)CC2)n1-c1ccc(Cl)cc1 [Example 46, trans((4-(4-(4-Chlorophenyl)-5-(2-(methylthio)ethyl)-4H-1,2,4-triazol-3-yl)cyclohexyl)oxy)pyridine] | 0.575
CS(=O)(=O)c1nnc([C@H]2CC[C@H](Oc3ccccn3)CC2)n1-c1ccc(Cl)cc1 [Example 48, trans((4-(4-(4-Chlorophenyl)-5-(methylsulfonyl)-4H-1,2,4-triazol-3-yl)cyclohexyl)oxy)pyridine] | 20
COCc1nnc([C@H]2CC[C@H](Oc3ccccn3)CC2)n1-c1ccc(Cl)cc1 [Example 35, trans(4-(4-(4-Chlorophenyl)-5-(methoxymethyl)-4H-1,2,4-triazol-3-yl)cyclohexyloxy)pyridine] | 0.631
C[S@@+]([O-])Cc1nnc(C2CCC(Oc3ccccn3)CC2)n1-c1ccc(Cl)cc1 (single isomer, unassigned) [Example 39, trans-(+)-2-((4-(4-(4-Chlorophenyl)-5-((methylsulfinyl)methyl)-4H-1,2,4-triazol-3-yl)cyclohexyl)oxy)pyridine] | 31.6
Cc1cc(Cl)ccc1-n1cnnc1[C@H]1CC[C@H](Oc2ccccn2)CC1 [Example 53] | 0.891
Cc1nnc([C@H]2CC[C@H](Oc3ccccn3)CC2)n1-c1ccc(C#N)cc1 [Example 8, trans(3-Methyl-5-((1r,4r)(pyridin-2-yloxy)cyclohexyl)-4H-1,2,4-triazolyl)benzonitrile] | 38.9
Cc1cc(Cl)ccc1-n1c(C)nnc1[C@H]1CC[C@H](Oc2ccccn2)CC1 [Example 13] | 0.269
COCc1nnc([C@H]2CC[C@H](Oc3ccc(C)nc3)CC2)n1-c1ccc(C)cc1 [Example 66, trans[4-[5-(Methoxymethyl)-4-(4-methylphenyl)-1,2,4-triazol-3-yl]cyclohexyl]oxy-2-methylpyridine] | 3.47
Clc1ccc(-n2cnnc2[C@H]2CC[C@H](Oc3ccccn3)CC2)cc1 [Example 52, trans((4-(4-(4-Chlorophenyl)-4H-1,2,4-triazol-3-yl)cyclohexyl)oxy)pyridine] | 2.24
COc1nnc([C@H]2CC[C@H](Oc3ccccn3)CC2)n1-c1ccc(Cl)cc1 [Example 49, trans((4-(4-(4-Chlorophenyl)-5-methoxy-4H-1,2,4-triazol-3-yl)cyclohexyl)oxy)pyridine] | 0.646
Cc1nnc([C@H]2CC[C@H](Oc3ccccn3)CC2)n1-c1ccc(Cl)cc1F [Example 12, trans((4-(4-(4-Chlorofluorophenyl)-5-methyl-4H-1,2,4-triazol-3-yl)cyclohexyl)oxy)pyridine] | 0.759
C[S@+]([O-])Cc1nnc([C@H]2CC[C@H](Oc3ccccn3)CC2)n1-c1ccc(Cl)cc1 (stereo in doubt) [Example 38, trans-(-)-2-((4-(4-(4-Chlorophenyl)-5-((methylsulfinyl)methyl)-4H-1,2,4-triazol-3-yl)cyclohexyl)oxy)pyridine] | 91.2
Cc1nnc([C@H]2CC[C@H](Oc3ccccn3)CC2)n1-c1ccccc1 [Example 5, trans((4-(5-Methyl-4-phenyl-4H-1,2,4-triazol-3-yl)cyclohexyl)oxy)pyridine] | 5.25
Cc1nnc([C@H]2CC[C@H](Oc3ccccn3)CC2)n1-c1ccc(Cl)cc1 [Example 3, trans(4-(4-(4-Chlorophenyl)-5-methyl-4H-1,2,4-triazol-3-yl)cyclohexyloxy)pyridine] | 0.912
Cc1ccc(-n2c(C(F)F)nnc2[C@H]2CC[C@H](Oc3ccccn3)CC2)cc1 [Example 31, trans((4-(5-(Difluoromethyl)-4-(p-tolyl)-4H-1,2,4-triazol-3-yl)cyclohexyl)oxy)pyridine] | 3.39
Cc1nnc([C@H]2CC[C@H](Oc3ccccn3)CC2)n1-c1ccc(F)c(F)c1 [Example 21, trans((4-(4-(3,4-Difluorophenyl)-5-methyl-4H-1,2,4-triazol-3-yl)cyclohexyl)oxy)pyridine] | 7.08
Cc1nnc([C@H]2CC[C@H](Oc3ccccn3)CC2)n1-c1ncc(Cl)cc1F [Example 24, transChloro-3-fluoro-2-(3-methyl(4-(pyridin-2-yloxy)cyclohexyl)-4H-1,2,4-triazol-4-yl)pyridine] | 61.7
Cc1ccc(-n2c(C)nnc2[C@H]2CC[C@H](Oc3cnc(C)cn3)CC2)cc1 [Example 71, transMethyl-5-[4-[5-methyl-4-(4-methylphenyl)-1,2,4-triazol-3-yl]cyclohexyl]oxypyrazine] | 17.8

Compound | Ki [nM]
CSc1cc(Cl)ccc1-n1c(C)nnc1[C@H]1CC[C@H](Oc2ccccn2)CC1 [Example 14, trans[4-[4-(4-Chloromethylsulfanylphenyl)-5-methyl-1,2,4-triazol-3-yl]cyclohexyl]oxypyridine] | 1.58
CN(C)Cc1nnc([C@H]2CC[C@H](Oc3ccccn3)CC2)n1-c1ccc(Cl)cc1 [Example 43, trans(4-(4-Chlorophenyl)-5-(4-(pyridin-2-yloxy)cyclohexyl)-4H-1,2,4-triazol-3-yl)-N,N-dimethylmethanamine] | 2.14
COCc1nnc([C@H]2CC[C@H](Oc3cnc(C)cn3)CC2)n1-c1ccc(Cl)cc1 [Example 72, trans[4-[4-(4-Chlorophenyl)-5-(methoxymethyl)-1,2,4-triazol-3-yl]cyclohexyl]oxy-5-methylpyrazine] | 2.95
COc1cc(Cl)ccc1-n1c(C)nnc1[C@H]1CC[C@@H](Oc2ccccc2)CC1 [Example 2, cis(4-Chloro-2-methoxy-phenyl)-3-methyl-5-(4-phenoxy-cyclohexyl)-4H-[1,2,4]triazole] | 7.59
FC(F)(F)c1nnc([C@H]2CC[C@H](Oc3ccccn3)CC2)n1-c1ccc(Cl)cc1 [Example 33, trans((4-(4-(4-Chlorophenyl)-5-(trifluoromethyl)-4H-1,2,4-triazol-3-yl)cyclohexyl)oxy)pyridine] | 2.14
COCc1nnc([C@H]2CC[C@H](Oc3cnccn3)CC2)n1-c1ccc(Cl)cc1 [Example 69, trans[4-[4-(4-Chlorophenyl)-5-(methoxymethyl)-1,2,4-triazol-3-yl]cyclohexyl]oxypyrazine] | 2.45
COCc1nnc([C@H]2CC[C@H](Oc3cnccn3)CC2)n1-c1ccc(C)cc1 [Example 68, trans[4-[5-(Methoxymethyl)-4-(4-methylphenyl)-1,2,4-triazol-3-yl]cyclohexyl]oxypyrazine] | 8.13
Cc1nnc([C@H]2CC[C@H](Oc3ccccn3)CC2)n1-c1ccc(C(F)F)cc1 [Example 7, trans((4-(4-(4-(Difluoromethyl)phenyl)-5-methyl-4H-1,2,4-triazol-3-yl)cyclohexyl)oxy)pyridine] | 18.6
Cc1nnc([C@H]2CC[C@H](Oc3ccccn3)CC2)n1-c1ccc(F)cc1 [Example 4, trans((4-(4-(4-Fluorophenyl)-5-methyl-4H-1,2,4-triazol-3-yl)cyclohexyl)oxy)pyridine] | 2.04
CN(C)CCc1nnc([C@H]2CC[C@H](Oc3ccccn3)CC2)n1-c1ccc(Cl)cc1 [Example 47] | 33.1
Cc1ccc(-n2cnnc2[C@H]2CC[C@H](Oc3ccccn3)CC2)c(C)c1 [Example 54, trans((4-(4-(2,4-Dimethylphenyl)-4H-1,2,4-triazol-3-yl)cyclohexyl)oxy)pyridine] | 2.19
C[S+]([O-])Cc1nnc([C@H]2CC[C@H](Oc3ccccn3)CC2)n1-c1ccc(Cl)cc1 (mixture of isomers) [Example 37, trans-(rac)-2-((4-(4-(4-Chlorophenyl)-5-((methylsulfinyl)methyl)-4H-1,2,4-triazol-3-yl)cyclohexyl)oxy)pyridine] | 64.6
Cc1ccc(O[C@H]2CC[C@H](c3nnc(C)n3-c3ccc(Cl)cc3)CC2)cn1 [Example 64] | 0.324
Cc1nnc([C@H]2CC[C@H](Oc3ccccn3)CC2)n1-c1ccc(Br)cc1 [Example 9, trans((4-(4-(4-Bromophenyl)-5-methyl-4H-1,2,4-triazol-3-yl)cyclohexyl)oxy)pyridine] | 0.195
Cc1cnc(O[C@H]2CC[C@H](c3nnc(C)n3-c3ccc(Cl)cc3)CC2)cn1 [Example 70, trans[4-[4-(4-Chlorophenyl)-5-methyl-1,2,4-triazol-3-yl]cyclohexyl]oxy-5-methylpyrazine] | 5.01
Cc1nnc([C@H]2CC[C@H](Oc3ccc(C(F)F)cn3)CC2)n1-c1ccc(Cl)cc1 [Example 60, trans((4-(4-(4-Chlorophenyl)-5-methyl-4H-1,2,4-triazol-3-yl)cyclohexyl)oxy)-5-(difluoromethyl)pyridine] | 2.29
COCc1nnc([C@H]2CC[C@H](Oc3ccc(C)nc3)CC2)n1-c1ccc(Cl)cc1 [Example 67, trans[4-[4-(4-Chlorophenyl)(methoxymethyl)-1,2,4-triazol-3-yl]cyclohexyl]oxy-2-methylpyridine] | 0.661
